Where two headings read alike, the source gives them in different places.
Experiments:
[1] = Cytotoxicity assay in MT-4 cells; assay type: cell-based; details: human, uninfected MT-4 cells, Cell Titer Glo
Method: (§1) Compounds were tested in a high-throughput 384-well assay format for their ability to inhibit the replication of HIV-1 (IIIB) in MT-4 cells. Compounds were serially diluted (1:3) in DMSO on 384-well polypropylene plates and further diluted 200-fold into complete RPMI media (10% FBS, 1% P/S) using the Biotek Micro Flow and Labcyte ECHO acoustic dispenser. Each plate contained up to 8 test compounds, with negative (No Drug Control) and 5 μM AZT positive controls. MT-4 cells were pre-infected with 10 μL of either RPMI (mock-infected) or a fresh 1:250 dilution of HIV-1 IIIB concentrated virus stock. Infected and uninfected MT-4 cells were further diluted in complete RPMI media and added to each plate using a Micro Flow dispenser. After 5 days incubation in a humidified and temperature controlled incubator (37° C.), Cell Titer Glo (Promega) was added to the assay plates and chemiluminescence read using an Envision plate-reader. EC50 values were defined as the compound concentration that causes a 50% decrease in luminescence signal, and were calculated using a sigmoidal dose-response model to generate curve fits. Cytotoxicity Assay in MT-4 Cells Assays were performed as above except uninfected MT-4 cells were added to each well containing test compound. In addition, 10 μM puromycin was added to the last column of each assay plate to assess a base level of cytotoxicity.

[2] = system: HIV-1 (IIIB) in MT-4 cells; test: HIV MT-4 antiviral assay; assay type: cell-based; details: Human immunodeficiency virus 1, MT4, 120 h, 5 days, Cell Titer Glo
Method: Example 47: HIV MT-4 Antiviral and Cytotoxicity Assay
Antiviral Assay in MT-4 Cells
as §1, with “fits.” for “fits. Cytotoxicity Assay in MT-4 Cells Assays were performed as above except uninfected MT-4 cells were added to each well containing test compound. In addition, 10 μM puromycin was added to the last column of each assay plate to assess a base level of cytotoxicity.”

[3] = system: pLai RLuc reporter virus in MT-4 cells; test: HIV MT-4 serum shift antiviral reporter assay; assay type: cell-based; details: Human immunodeficiency virus 1, MT4, 72 h, read-out: RLUC CCM
Method: Example 48: HIV MT-4 Serum Shift Antiviral Reporter Assay
To quantify the amount of protein binding to human serum, compounds were serially diluted (1:3) in DMSO and acoustically transferred onto 384-well assay plates via a Labcyte ECHO robot. Each plate contained up to 8 test compounds, including negative and positive controls, (DMSO, 5 μM AZT respectively). Assay plates were prepared in duplicate, and tested in either CCM (cell culture media) or HS/CCM (human serum/cell culture media). MT-4 cells were first pre-infected with pLai RLuc reporter virus for 2 h at 37° C., then further diluted in either CCM (RPMI media, 10% FBS, 1% P/S) or HS/CCM (RPMI media, 10% FBS, 50% HS, 1% P/S), and subsequently added to each plate using a Biotek Micro Flow dispenser. After a 72-h incubation in a humidified and temperature controlled incubator (37° C.), Renilla Glo (Promega) was added to all assay plates and chemiluminescence read using an Envision plate-reader. EC50 values were defined as the compound concentration that causes a 50% decrease in luminescence signal, and were calculated using a sigmoidal dose-response model to generate curve fits. To determine the amount of protein binding, EC50 fold shifts (or EC50 shifts) were calculated by dividing EC50 (HS/CCM)/EC50 (CCM). […]

[4] = High throughput microsomal stability assay (human liver microsomes); assay type: in vitro ADME; details: for HLM stability: human liver microsomes, 1 uM compound, NADPH + UDPGA cofactors, 37 C
Method: Example 49: High Throughput Microsomal Stability Assay
Metabolic stability of compounds was assessed using Human, or Rat Liver Microsomal assays (Corning). In this assay, 10 nL compounds at concentration of 1 mM in 100% DMSO were dispensed into 384-well polypropylene plates using the Echo 550 acoustic liquid dispenser (Labcyte®). Each plate contained 384 wells with a single test compound in each well.
A solution of human (Corning® Gentest™ Human Mixed Pooled Microsomes), or rat (Corning® Gentest™ Rat [Sprague-Dawley] Pooled Liver Microsomes) liver microsomes at 2 mg/ml in 100 mM K2HPO4/KH2PO4 pH 7.4 with Alamethicin from Trichoderma viride (Sigma-Aldrich) 0.0225 mg/ml were incubated on ice for 15 minutes. 5 uL of this solution was added to individual wells following 15 minute incubation at room temperature; and supplemented with 5 uL NADPH Regenerating Solution of cofactors (Corning® Gentest™ UGT Reaction Mix) containing 100 mM K2HPO4/KH2PO4 pH 7.4, 2.6 mM NADP+, 6.6 mM glucose-6-phosphate, 6.6 mM MgCl2, 0.8 U/mL glucose-6-phosphate dehydrogenase, 0.1 mM Sodium Citrate, 6.8 mM uridine diphosphate-glucuronic acid. Final concentration of analyte compounds at the beginning of the reaction was 1 uM. The reactions were incubated at 37° C. and time points of 0, 5, 15, 30, 40, 50, 60, and 70 minutes were collected for further analysis. Background data were collected using reactions without analyte compounds.
Upon collection of the reaction time points, samples were quenched with 30 uL of a solution of 72% acetonitrile, 8% methanol, 0.1% formic acid, 19.9% water, and internal standard (IS). Reaction plates were span in a centrifuge at speed of 4,000 rcf for 30 minutes and 4° C., following a dilution of the 10 uL quenched reaction into 40 uL de-ionized water, yielding assay plates.
Assay plates were analyzed using solid-state extraction coupled with quadrupole time-of-flight mass spectrometer, using Agilent QToF 6530 RapidFire 360 system, with C4 type A solid state cartridges. Analysis was performed in either positive or negative ionization modes. Mobile phases contained 0.1% formic acid in water for loading analytes onto solid state extraction cartridges, and 0.1% formic acid in acetonitrile for elution into mass spectrometer in positive ionization mode, or 0.1% acetic acid in water for loading and 0.1% acetic acid in acetonitrile for extraction in negative ionization mode. Peak-area ratios of integrated counts for individual compounds to IS were plotted as semi-logarithmic chart of log vs time. Initial, linear portion of decay was fitted to a linear regression equation to derive half time of a compound decay.
Pharmacological parameters for an analyte compound metabolism were calculated using the following equations: […]
Where. Calculation of In Vitro Intrinsic Clearance
Concentration refers to the protein concentration (mg/mL) in the reaction.
Calculation of In Vivo Intrinsic Clearance
This scales the in vitro intrinsic clearance up to the value that would be predicted for the entire mass of liver tissue (but with no restriction by blood flow). The value depends upon the size of the liver (species-dependent) and the yield of microsomal protein as appropriate (assumed to be species-independent).
Calculation of Predicted Clearance
Hepatic clearance will depend upon the inter-relationship of intrinsic clearance and hepatic blood flow and can be predicted from in vitro data using a variety of approaches.
Calculation of Hepatic Extraction
This is simply the predicted clearance expressed as a proportion of hepatic blood flow. E=CL/QH*100%
Intrinsic clearance of the instant compounds, as well as for reference compounds A-F, were calculated following the procedure above.

SMILES | CC50 at 5 days [1] [nM] | EC50 [2] [nM] | EC50 [3] [nM] | HLM stability [4] [mL/min/kg] | MS Cl improvement ([4]; relative to compound A) | MS Cl improvement ([4]; relative to compound B) | MS Cl improvement ([4]; relative to compound C) | MS Cl improvement ([4]; relative to compound D) | MS Cl improvement [4]
CO[C@H]1CC[C@H](C)N2C[C@H]1n1cc(C(=O)NCc3c(F)cc(F)cc3F)c(=O)c(O)c1C2=O [Example 1, (3S,6S,7R)-12-hydroxy-6-methoxy-3-methyl-1,11-dioxo-N-(2,4,6-trifluorobenzyl)-1,4,5,6,7,11-hexahydro-3H-2,7-methanopyrido[1,2-a][1,4]diazonine-10-carboxamide] | 34800 | 1.5 | 0.55 | 3.5 | 3.2 times relative to compound A | – | – | – | –
C[C@H]1CC[C@H](O)[C@H]2CN1C(=O)c1c(O)c(=O)c(C(=O)NCc3c(F)cc(F)cc3F)cn12 [Example 2, (3S,6S,7R)-6,12-dihydroxy-3-methyl-1,11-dioxo-N-(2,4,6-trifluorobenzyl)-1,4,5,6,7,11-hexahydro-3H-2,7-methanopyrido[1,2-a][1,4]diazonine-10-carboxamide] | 50000 | 1.8 | 0.53 | 2.5 | – | – | – | – | –
CO[C@H]1CC[C@H](C)N2C[C@H]1n1cc(C(=O)NCc3ccc(F)cc3F)c(=O)c(O)c1C2=O [Example 3, (3S,6S,7R)—N-(2,4-difluorobenzyl)-12-hydroxy-6-methoxy-3-methyl-1,11-dioxo-1,4,5,6,7,11-hexahydro-3H-2,7-methanopyrido[1,2-a][1,4]diazonine-10-carboxamide] | 16500 | 1.5 | 0.42 | 2.5 | – | 3.2 times relative to compound B | – | – | –
CO[C@@H]1C=C[C@H](C)N2C[C@H]1n1cc(C(=O)NCc3c(F)cc(F)cc3F)c(=O)c(O)c1C2=O [Example 4, (3S,6R,7R)-12-hydroxy-6-methoxy-3-methyl-1,11-dioxo-N-(2,4,6-trifluorobenzyl)-1,6,7,11-tetrahydro-3H-2,7-methanopyrido[1,2-a][1,4]diazonine-10-carboxamide] | 11200 | 1.1 | 0.34 | 2.33 | – | – | 3.6 times relative to compound C | – | –
C[C@H]1CC[C@@H](O)[C@H]2CN1C(=O)c1c(O)c(=O)c(C(=O)NCc3c(F)cc(F)cc3F)cn12 [Example 5, (3S,6R,7R)-6,12-dihydroxy-3-methyl-1,11-dioxo-N-(2,4,6-trifluorobenzyl)-1,4,5,6,7,11-hexahydro-3H-2,7-methanopyrido[1,2-a][1,4]diazonine-10-carboxamide] | 50000 | 1.8 | 0.71 | 3.33 | – | – | – | – | –
CO[C@@H]1CC[C@H](C)N2C[C@H]1n1cc(C(=O)NCc3c(F)cc(F)cc3F)c(=O)c(O)c1C2=O [Example 6, (3S,6R,7R)-12-hydroxy-6-methoxy-3-methyl-1,11-dioxo-N-(2,4,6-trifluorobenzyl)-1,4,5,6,7,11-hexahydro-3H-2,7-methanopyrido[1,2-a][1,4]diazonine-10-carboxamide] | 13000 | 1.4 | 0.5 | 4.83 | – | – | – | 2.3 times relative to compound D | –
CO[C@@H]1C=C[C@H](C)N2C[C@H]1n1cc(C(=O)NCc3ccc(F)cc3F)c(=O)c(O)c1C2=O [Example 7, (3S,6R,7R)—N-(2,4-difluorobenzyl)-12-hydroxy-6-methoxy-3-methyl-1,11-dioxo-1,6,7,11-tetrahydro-3H-2,7-methanopyrido[1,2-a][1,4]diazonine-10-carboxamide] | 9910 | 1.2 | 0.29 | 3.33 | – | – | – | – | 2.0 times relative to compound E

From patent US12421235B2, “Bridged tricyclic carbamoylpyridone compounds and uses thereof” (Gilead Sciences, Inc., priority 2020, dated 2025)
